Activity calls are given as the source filed them. The rule behind the calls is not given here.
How the values were obtained:
Mus musculus [1] = assay: Anti-glaucoma activity against magnetic microbead-induced ocular hypertensive COHT C57BL/6J mouse model assessed as reduction in intraocular pressure administered as 10 mM eye drop measured after 8 hrs; type: functional, organism-based
Mus musculus [2] = assay: Anti-glaucoma activity against magnetic microbead-induced ocular hypertensive COHT C57BL/6J mouse model assessed as reduction in number of SA-betaGal positive cells per unit area of whole flat-mount retina at 10 mM administered eye drop thrice a day for 10 days by SA-beta Gal staining based […]; type: functional, organism-based; settings: time 10.0 day
Mus musculus [3] = assay: Neuroprotective activity against magnetic microbead-induced ocular hypertensive COHT C57BL/6J mouse model assessed as improvement in peak time of N1 wave at 10 mM administered eye drop thrice a day for 10 days […]; type: functional, organism-based; settings: time 10.0 day
Mus musculus [4] = assay: Neuroprotective activity against magnetic microbead-induced ocular hypertensive COHT C57BL/6J mouse model assessed as protection effect on retinal ganglion cells (RGC) at 10 mM administered eye drop thrice a day for 10 days; type: functional, organism-based; settings: time 10.0 day
Mus musculus [5] = assay: Neuroprotective activity against magnetic microbead-induced ocular hypertensive COHT C57BL/6J mouse model assessed as increase in retinal ganglion cells (RGC) survival at 10 mM administered eye drop thrice a day for 10 days by immunofluorescence staining based analysis; type: functional, organism-based; settings: time 10.0 day
HTM [6] = assay: Upregulation of NO level in HTM cells at 5 uM incubated for 12 hrs by DAF-FM DA fluorescent probe based flow cytometry analysis; type: functional, cell-based; settings: Homo sapiens
Mus musculus [7] = assay: Neuroprotective activity against magnetic microbead-induced ocular hypertensive COHT C57BL/6J mouse model assessed as improvement in visual acuity of mouse at 10 mM administered eye drop thrice a day for 10 days by Optokinetic Reflex Assay; type: functional, organism-based; settings: time 10.0 day
Mus musculus [8] = assay: Anti-glaucoma activity against magnetic microbead-induced ocular hypertensive COHT C57BL/6J mouse model assessed as reduction in fraction of SA-beta-Gal positive area in retina at 10 mM administered eye drop thrice a day for 10 days by SA-beta Gal staining based […]; type: functional, organism-based; settings: time 10.0 day
Mus musculus [9] = assay: Anti-glaucoma activity against magnetic microbead-induced ocular hypertensive COHT C57BL/6J mouse model assessed as reduction in intraocular pressure administered as 10 mM eye drop measured after 2 to 4 hrs; type: functional, organism-based; settings: time 2-4 hrs
Mus musculus [10] = assay: Neuroprotective activity against magnetic microbead-induced ocular hypertensive COHT C57BL/6J mouse model assessed as improvement in N1 wave amplitude at 10 mM administered eye drop thrice a day for 10 days […]; type: functional, organism-based; settings: time 10.0 day
HTM [11] = assay: Anti-glaucoma activity in BLEO-induced senescence in HTM cells assessed as decrease in proportion of SA-beta-Gal positive cells at 5 uM measured for 48 hrs by senescence-associated galactosidase staining based microscopic analysis; type: functional, cell-based; settings: Homo sapiens
HTM [12] = assay: Upregulation of cGMP level in HTM cells at 5 uM incubated for 24 hrs by ELISA method; type: functional, cell-based; settings: Homo sapiens
[13] = Inhibition of senescence in mouse MEF cells measured after 72 hrs by CCK-8 method; type: functional, cell-based
[14] = Antiproliferative activity against mouse MEF cells assessed as inhibition of cell proliferation measured after 72 hrs by CCK-8 method; type: functional, cell-based
[15] = Senolytics index ratio of IC50 for antiproliferative activity against mouse MEF cells to IC50 for inhibition of senescence in mouse MEF cells; type: functional
Mus musculus [16] = assay: Anti-glaucoma activity against magnetic microbead-induced ocular hypertensive COHT C57BL/6J mouse model assessed as reduction in intraocular pressure administered as 10 mM eye drop measured after 2 to 8 hrs; type: functional, organism-based; settings: time 2-8 hrs
[17] = Toxicity in C57BL/6J mouse assessed as effect on discernible conjunctival hyperemia administered as 10 mM eye drop measured up to 4 hrs; settings: in vivo, topical_or_ocular, 10000 µM
Mus musculus [18] = assay: Anti-glaucoma activity against magnetic microbead-induced ocular hypertensive COHT C57BL/6J mouse model assessed as intraocular pressure lowering efficacy administered as 10 mM eye drop measured after 4 hrs; type: functional

SMILES	IC50 ([13]; Mus musculus, MEF, 72 h) [nM]	IC50 ([14]; Mus musculus, MEF, 72 h) [nM]	Ratio IC50 [15]	also measured
Cc1nc(Nc2ncc(C(=O)Nc3c(C)cccc3Cl)s2)cc(N2CCN(CCOC(=O)CCC(=O)OCCOCCOc3no[n+]([O-])c3S(=O)(=O)c3ccccc3)CC2)n1 [listing 1 of 2 here]				Activity (Mus musculus [1]): inactive; Activity (Mus musculus [2]): Active; Activity (Mus musculus [3]): Active; Activity (Mus musculus [4]): Active; Compound Showed Significant Effect Than Dasatinib; Activity (Mus musculus [5]): Active; Compound Showed More Pronounced Effect Then Dasatinib; Activity (HTM [6]): Active; Activity (Mus musculus [7]): Active; Activity (Mus musculus [8]): Active; Activity (Mus musculus [9]): Active; Activity (Mus musculus [10]): Active; Activity (HTM [11]): Active; Activity (HTM [12]): Active
Cc1nc(Nc2ncc(C(=O)Nc3c(C)cccc3Cl)s2)cc(N2CCN(CCOC(=O)CCC(=O)O[C@@H]3CO[C@H]4[C@@H]3OC[C@@H]4O[N+](=O)[O-])CC2)n1	540	330	0.61	
Cc1nc(Nc2ncc(C(=O)Nc3c(C)cccc3Cl)s2)cc(N2CCN(CCO)CC2)n1 [DASATINIB ANHYDROUS]	510	2850	5.55	Activity (Mus musculus [16]): inactive; Activity (Mus musculus [2]): Active; Activity (Mus musculus [3]): Active; Activity (Mus musculus [4]): Active; Activity (Mus musculus [5]): Active; Activity (Mus musculus [7]): inactive; Activity (Mus musculus [8]): Active; Activity (Mus musculus [10]): Active; Activity [17]: Non-toxic; Activity (HTM [11]): Active
Cc1nc(Nc2ncc(C(=O)Nc3c(C)cccc3Cl)s2)cc(N2CCN(CCOC(=O)CCC(=O)OCCCCO[N+](=O)[O-])CC2)n1	1070	1780	1.67	
Cc1nc(Nc2ncc(C(=O)Nc3c(C)cccc3Cl)s2)cc(N2CCN(CCOC(=O)CCC(=O)OCCOCCOc3no[n+]([O-])c3S(=O)(=O)c3ccccc3)CC2)n1 [listing 2 of 2 here]	480	1100	2.28	
Cc1nc(Nc2ncc(C(=O)Nc3c(C)cccc3Cl)s2)cc(N2CCN(CCOC(=O)CCC(=O)OCCCCOc3no[n+]([O-])c3S(=O)(=O)c3ccccc3)CC2)n1	1240	2350	1.9	
Cc1nc(Nc2ncc(C(=O)Nc3c(C)cccc3Cl)s2)cc(N2CCN(CCO[N+](=O)[O-])CC2)n1	1190	1530	1.29	Activity (HTM [6]): Active
CS(=O)(=O)O.CS(=O)(=O)O.CS(=O)(=O)O.Cc1nc(Nc2ncc(C(=O)Nc3c(C)cccc3Cl)s2)cc(N2CCN(CCOC(=O)CCC(=O)OCCOCCOc3no[n+]([O-])c3S(=O)(=O)c3ccccc3)CC2)n1			3.25	IC50 ([13]; mef): 380 nM; IC50 ([14]; mef): 1230 nM; Activity (Mus musculus [18]): 3.6 mmHg; Activity [17]: Non-toxic
CS(=O)(=O)O.CS(=O)(=O)O.CS(=O)(=O)O.Cc1nc(Nc2ncc(C(=O)Nc3c(C)cccc3Cl)s2)cc(N2CCN(CCOC(=O)CCC(=O)OCCCCOc3no[n+]([O-])c3S(=O)(=O)c3ccccc3)CC2)n1			1.76	IC50 ([13]; mef): 750 nM; IC50 ([14]; mef): 1310 nM
Cc1nc(Nc2ncc(C(=O)Nc3c(C)cccc3Cl)s2)cc(N2CCN(CCOC(=O)CCC(=O)OCCCO[N+](=O)[O-])CC2)n1	450	1420	3.13	
Cc1nc(Nc2ncc(C(=O)Nc3c(C)cccc3Cl)s2)cc(N2CCN(CCOC(=O)CCC(=O)OCCCCCO[N+](=O)[O-])CC2)n1	3290	1310	0.4	
Cc1nc(Nc2ncc(C(=O)Nc3c(C)cccc3Cl)s2)cc(N2CCN(CCOC(=O)CCC(=O)OCCO[N+](=O)[O-])CC2)n1	410	1750	4.3	
Cc1nc(Nc2ncc(C(=O)Nc3c(C)cccc3Cl)s2)cc(N2CCN(CCOC(=O)COc3no[n+]([O-])c3C)CC2)n1	520	1280	2.45	
Cc1nc(Nc2ncc(C(=O)Nc3c(C)cccc3Cl)s2)cc(N2CCN(CCOC(=O)CCC(=O)OCCOc3no[n+]([O-])c3C)CC2)n1	490	1340	2.73	
